# Target: recombinant CpLDH protein (Cryptosporidium parvum, UniProt Q9GT92, F198L/K295E/R251K)
# Conditions: not given
row,Structure (SMILES),MEAN CpLDH INHIBITION (%)
1,O=C1C=C(Nc2ccccc2C(=O)CC(=O)C(=O)Nc2ccc(Cl)c(Cl)c2)c2ccccc2C1=O [NSC641250],-16.86%
2,CNC(=S)N/N=C/c1ccc([N+](=O)[O-])s1 [NSC169543],-46.26%
3,CC1=CC(=C(c2ccc(N)cc2)c2ccc(N)cc2)C=CC1=N.Cl [NSC93739],-24.21%
4,C[C@H]1CCC/C=C/[C@@H]2C[C@H](O)C[C@H]2[C@H](O)/C=C/C(=O)O1 [NSC89671],-22.45%
5,O=C(N=Nc1c(O)[nH]c2c(Cl)cc(Cl)cc12)c1ccccc1O [NSC320864],-26.08%
6,Cc1ccc(S(=O)(=O)[O-])cc1.Cc1ccc(S(=O)(=O)[O-])cc1.Cn1c(-c2ccc(/C=C/C=N/NC(=O)c3ccc(C(=O)N/N=C/C=C/c4ccc(-c5c[n+]6ccccc6n5C)cc4)cc3)cc2)c[n+]2ccccc12 [NSC603169],-164.45%
7,CC1=CC(=O)c2cccc(NC3=NCCO3)c21 [NSC664331],-15.78%
8,CN1CCCC2C(c3ccccc3)C(C3=NCCCC3)C(c3ccccc3)CC21.Cl (stereo not drawn) [NSC109444],-58.72%
9,Oc1ccc(-c2nc3ccccc3s2)cc1 [NSC33004],-8.80%
10,COc1ccc(-c2csc(=[N+]3CCCCC3)s2)cc1 [NSC302358],0.36%
11,C=C(CN(C)C)C(=O)c1ccccc1Cl.Cl [NSC382007],-43.42%
12,C=C1CC(COc2cc(=O)oc3ccccc23)(c2ccccc2)OC1=O (stereo not drawn) [NSC668270],-4.80%
13,NS(=O)(=O)c1nc2nc[nH]c(=O)c2[nH]1 [NSC635448],-5.65%
14,CCCNC1=C(C)C(=O)C2=C(C1=O)[C@H](COC(N)=O)[C@]1(OC)[C@@H]3N[C@@H]3CN21 [NSC123115],-0.99%
15,CN(C)c1cccc(F)c1C(=O)NC(=O)Nc1ccc(Cl)cc1 [NSC603108],-29.93%
16,OCC1OC(n2cnc3c(SCc4ccccc4)ncnc32)C(O)C1O (stereo not drawn) [NSC26273],-4.046%
17,CC1(C)NC(=O)N(CCCCCCN2C(=O)NC(C)(C)C2=O)C1=O [NSC376791],-26.30%
18,CC12CC(Br)(Br)C(=O)C3C1CCCC32 [NSC624358],-23.30%
19,CC(=O)/C(C)=N/NC(=O)c1ccccc1O [NSC635441],-52.88%
20,Cc1c2ccncc2cc2c1[nH]c1ccccc12 [NSC87206],-25.74%
21,Nc1ccccc1N [NSC5354],0%
22,COc1ccc(/C=C2\CCCc3ccccc3C2=O)cc1 [NSC687667],-11.60%
23,CC(=O)SC(SC(C)=O)SC(C)=O [NSC637833],-64.71%

row,Structure (SMILES),MEAN CpLDH INHIBITION (%)
1,N#CC(=S)Nc1ccc(Cl)c(Cl)c1 [NSC379531],-50.91%
2,Br.CCN(CC)CC(C)(C)C(=O)/C=C/c1ccc(C)cc1 [NSC382766],-40.98%
3,Cc1ccc([N+](=O)[O-])cc1NC(=O)c1cccc([N+](=O)[O-])c1O [NSC79451],-40.98%
4,Cc1ccc(S(=O)(=O)NC(=O)NC2=NC(C)(C)N(c3ccc(Cl)c(Cl)c3)C(N)=N2)cc1 [NSC603624],-12.73%
5,CN1c2c(nc(N)[nH]c2=O)NCC1CCNc1ccc(C(=O)N[C@@H](CCC(=O)[O-])C(=O)[O-])cc1.[Na+].[Na+] (stereo partly drawn) [NSC139490],-2.06%
6,CC(=O)Oc1ccc(C(c2ccc(OC(C)=O)cc2)c2ccccn2)cc1 [NSC614826],-3.85%
7,Cn1cnc([N+](=O)[O-])c1Sc1nnc(-c2cccnc2)n1C [NSC631160],-15.11%
8,CC1(C)[C@@H]2CC[C@@]1(CS(=O)(=O)O)C(=O)C2.CN1[C@@H](c2ccccc2)CC(=NO)C[C@H]1c1ccccc1 [NSC363744],-9.54%
9,CC(=O)/C(=C\c1cccc([N+](=O)[O-])c1)C(=O)Nc1ccccc1C [NSC634658],-26.76%
10,CCN(CC)CCCC(C)NC(=O)c1ccc2c(c1)C(=O)c1ccccc1C2=O.Cl (stereo not drawn) [NSC331757],-61.61%
11,CCC[CH2][Sn]([CH2]CCC)([CH2]CCC)[O]c1cc(Cl)c(Cl)cc1Cl [NSC164914],-26.61%
12,CCN(CC)CCCNc1ncc(C)c2[nH]c3ccncc3c12.O=C(O)/C=C\C(=O)O [NSC625331],-26.39%
13,COc1cc(/C=C(\OC(C)=O)c2ccc3c(c2)OCO3)cc(OC)c1OC [NSC647363],-3.74%
14,C[C@H](CSC(=O)c1ccccc1)C(=O)N1c2ccccc2C[C@H]1C(=O)O [NSC604535],-8.81%
15,NC1=NCN([C@@H]2O[C@H](CO)[C@@H](O)[C@H]2O)C(=O)N1 [NSC264880],-2.01%
16,COc1ccc(C[C@@H]2NC[C@@H](O)[C@@H]2OC(C)=O)cc1.Cl [NSC147340],-13.68%
17,Fc1cccc(Cl)c1C1SCc2nc3ccccc3n21 (stereo not drawn) [NSC625483],-18.24%
18,COC(=O)c1c[nH]c2c1-c1cc(C(=O)OCc3ccccc3)n(S(=O)(=O)c3ccc(C)cc3)c1C(=O)C2=O [NSC679524],-184.78%
19,Cc1nc2c(o1)C(=O)c1ccccc1C2=Nc1ccccc1 [NSC650573],-21.28%
20,CCCCCCCCCCCCC(O)C(=O)O (stereo not drawn) [NSC18938],-83.85%
21,CCN(CC)CCNC(=O)c1nn(-c2ccc(Cl)cc2)c2c1CCc1cc(OC)ccc1-2 [NSC288010],-45.22%
22,COc1ccc(NC(=O)C(=O)/C=C(\O)c2ccccc2)cc1 [NSC658709],-17.00%
23,O=C1C(c2cnc3ccccc3n2)=C(O)c2ccccc21 [NSC634224],-37.07%

row,Structure (SMILES),MEAN CpLDH INHIBITION (%)
1,Nc1ncnc2c1ncn2C1OC(CO)C(O)C1O (stereo not drawn) [NSC70422],-12.00%
2,C[C@H]1O[C@@H](c2ccc3c(c2O)C(=O)C2=C(C3=O)[C@@]3(O)C(=O)C[C@](C)(O)C[C@@]3(O)C=C2)C[C@@H](O)[C@@H]1O [NSC184398],-31.06%
3,O=C(NCCCCCCCCNC(=O)c1cccc2ccccc12)c1cccc2ccccc12 [NSC629738],-0.22%
4,COC(C(=O)C(O)C(C)O)C1Cc2cc3cc(OC4CC(OC5CC(O)C(O)C(C)O5)C(O)C(C)O4)c(C)c(O)c3c(O)c2C(=O)C1OC1CC(OC2CC(OC3CC(O)C(OC)C(C)O3)C(O)C(C)O2)C(O)C(C)O1 (stereo not drawn) [NSC269146],-38.98%
5,[Cl-].c1csc(C[N+]23CN4CN(CN(C4)C2)C3)c1 [NSC49660],-3.53%
6,CCN(CC)CCCC(C)Nc1ccnc(/C=C/c2ccc(Cl)cc2)c1 (stereo not drawn) [NSC157389],-3.33%
7,NC(=S)N/N=C/c1ccc(OC(=O)COc2ccccc2Cl)cn1 [NSC185056],-5.23%
8,CCCC/C=C/C=C/C=C/CCCCCCCC(=O)OCC(COC(=O)CCCCCCC/C=C/C1C=CC(CCCC)C(C(=O)O)C1C(=O)O)OC(=O)CCCCCCC/C=C/C=C/C=C/CCCC.OCCNCO (stereo not drawn) [NSC643834],-1.59%
9,CO[C@@H]1C[C@@H](C[C@H]2CC[C@H](C)[C@H]([C@@H](C)C(=O)[O-])O2)O[C@]2(O[C@](C)([C@H]3CC[C@@](C)([C@@H]4O[C@@H]([C@H]5O[C@@](O)(CO)[C@H](C)C[C@@H]5C)C[C@@H]4C)O3)C[C@H]2C)[C@@H]1C.[Na+] [NSC292567],-134.14%
10,Cc1cc2nc(C=C(C(F)(F)F)C(F)(F)F)oc2cc1C [NSC168415],-49.77%
11,CCOC(=O)CCc1c(C)c2c(O)cc(O)cc2oc1=O [NSC622616],-39.56%
12,O=C(O)c1ccc(NC(c2ccccc2)c2ccc3cccnc3c2O)cc1 (stereo not drawn) [NSC1011],-0.99%
13,Br.CCCCCC(CN1CCOCC1)C(=O)/C=C/c1ccccc1 (stereo not drawn) [NSC322069],-28.89%
14,CCOC(OC1=C(C#N)CCC1)C(C)[Se]c1ccccc1 (stereo not drawn) [NSC646189],-21.95%
15,CC(C)(C)C1CCC2(CC1)CCN(CCCN1CCOCC1)CC2 [NSC90829],-2.93%
16,OCc1ccc(-c2ccc(-c3ccc(CO)s3)o2)s1 [NSC652287],-15.92%
17,Oc1ccc2ccccc2c1N=Nc1cccc2ccccc12 [NSC45575],-10.08%
18,CCCCCCCCCCCCCCCCOCC(O)CO (stereo not drawn) [NSC59269],0.04%
19,CO[C@@H](/C(C)=C/C=C/C(C)=C/c1coc(C)n1)[C@@H](C)[C@@H]1C[C@H](O)[C@@]2(C)O[C@@H]2/C=C/[C@@H](C)[C@H]2C[C@H](CC(=O)O2)C[C@@H]2O[C@H]2C(=O)O1 [NSC332598],-143.77%
20,O=C(Nc1ccc(Sc2ccc(N=Nc3c(O)c(S(=O)(=O)O)cc4cc(S(=O)(=O)O)ccc34)cc2)cc1)c1ccc(N=Nc2c(O)ccc3c(S(=O)(=O)O)cc(S(=O)(=O)O)cc23)cc1 [NSC76027],-85.04%
21,O=c1[nH]c2ccc(O)cc2o1 [NSC603719],-2.52%
22,CCCCOCc1cc(CN2CCN(C)CC2)c(O)c2ncccc12 [NSC20514],-30.20%

# Same assay, conditions: 20 μM compound; 10 mM pyruvate, 1 mM NADH; values below 0 = augmenters
row,Structure (SMILES),MEAN CpLDH INHIBITION (%)
1,Cc1ccc(S(=O)(=O)c2ccc([N+](=O)[O-])o2)cc1 [NSC697923],-17.27%
